Results from the supplement of paper PMC10307832.

Legend:
Experiment in all cases: relative viability (nuclei count vs DMSO), 5 days (fraction); higher = more cells survive
[1] = compound: CC1=CN2C(=O)C=C(N=C2C(=C1)C(C)NC3=CC=CC=C3)N4CCOCC4 [TGX 221] + COc1cc2c(Oc3ccc(NC(=O)C4(C(=O)Nc5ccc(F)cc5)CC4)cc3F)ccnc2cc1OCCCN1CCOCC1 [Foretinib] (partner 0.25 µM)
How it was run: (§1)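 Lung cancer cell lines in 1536-well plates got either a single drug or a fixed anchor-drug dose together with five library-drug doses (not always all listed) in √10 steps, by pin tool, on the day after seeding. Nuclei were counted after 5 days, and relative viability is the treated-to-vehicle ratio of nuclei counts. Values are medians of duplicate plates.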

[2] = compound: O=C(CCCCCCNC(=O)c1cnc(N(c2ccccc2)c2ccccc2)nc1)NO [Ricolinostat] + CCNC(=O)c1noc(-c2cc(C(C)C)c(O)cc2O)c1-c1ccc(CN2CCOCC2)cc1 [Luminespib] (partner 0.01 µM)
How it was run: as §1

[3] = compound: C1=CC=C(C(=C1)C2=CC=C(C=C2)C3=CSC4=C3C(=C(C(=O)N4)C#N)O)O + COc1cc2c(Oc3ccc(NC(=O)C4(C(=O)Nc5ccc(F)cc5)CC4)cc3F)ccnc2cc1OCCCN1CCOCC1 [Foretinib] (partner 0.25 µM)
How it was run: as §1

[4] = compound: O=C(CCCCCCNC(=O)c1cnc(N(c2ccccc2)c2ccccc2)nc1)NO [Ricolinostat] + CC(C)C[C@H](NC(=O)[C@H](Cc1ccccc1)NC(=O)c1cnccn1)B(O)O [Bortezomib] (partner 0.002 µM)
How it was run: as §1

Cell Line	relative viability ([1]; first compound 0.08 µM)	relative viability ([1]; first compound 0.253 µM)	relative viability ([1]; first compound 0.8 µM)	relative viability ([1]; first compound 2.53 µM)	relative viability ([1]; first compound 8 µM)	relative viability ([2]; first compound 0.08 µM)	relative viability ([2]; first compound 0.253 µM)	relative viability ([2]; first compound 0.8 µM)	relative viability ([2]; first compound 2.53 µM)	relative viability ([3]; first compound 0.08 µM)	relative viability ([3]; first compound 0.253 µM)	relative viability ([3]; first compound 0.8 µM)	relative viability ([3]; first compound 2.53 µM)	relative viability ([3]; first compound 8 µM)	relative viability ([4]; first compound 0.08 µM)	relative viability ([4]; first compound 0.253 µM)	relative viability ([4]; first compound 0.8 µM)	relative viability ([4]; first compound 2.53 µM)
NCI-H596	0.844	0.928	0.856	0.894	0.797	1.12	0.83	0.881	1.1	1.01	0.783	0.79	1.03	0.824	0.896	1.09	1.13	–
NCI-H1650	0.953	0.751	1.05	0.922	0.639	0.184	0.191	0.225	0.17	0.795	1.52	1.31	1.22	0.935	0.184	0.195	0.193	0.205
NCI-H1437	1.26	1.21	1.25	1.19	1.06	0.984	1.08	1.12	0.92	1.24	1.32	1.36	1.37	1.1	0.561	0.513	0.479	0.256
PC-3 [JPC-3]	1	1.03	1.05	0.947	0.972	–	0.702	0.764	0.66	1.05	1.01	1.02	1.05	0.995	0.832	0.791	0.791	0.829
